Assay results taken from US9067892B2, “Spiroheterocyclic N-oxypiperidines as pesticides” (Syngenta Crop Protection, Inc., priority 2008, dated 2015).

What was measured:
[1] = tested on: Myzus persicae (green peach aphid); test: Example B16: Myzus persicae on pepper plants, feeding/residual contact activity; assay type: in vivo; conditions: 144 h, infested pepper plants sprayed, 6 days after treatment, mortality, read-out: activity against Myzus persicae
[2] = tested on: Myzus persicae (green peach aphid); test: Example B2: Myzus persicae, mixed population, systemic/feeding activity, curative; conditions: 144 h, read-out: activity
[3] = tested on: Myzus persicae (green peach aphid); test: Example B1: Myzus persicae, mixed population, feeding/residual contact activity, preventive; conditions: foliar, 144 h, read-out: activity
[4] = tested on: Tetranychus urticae (two-spotted spider mite); test: Example B4: Tetranychus urticae, mixed population, feeding/residual contact activity, preventive; assay type: in vivo; conditions: foliar, 192 h, bean leaf discs sprayed, 8 days, egg, larval and adult mortality
Excerpt: Activity Against Tetranychus urticae (Two-Spotted Spider Mite) (Mixed Population, Feeding/Residual Contact Activity, Preventive) Bean leaf discs on agar in 24-well microtiter plates are sprayed with test solutions. […] 8 days later, discs are checked for egg mortality, larval mortality, and adult mortality.

[5] = tested on: Thrips Tabaci (onion thrips); test: Example B3: Thrips tabaci, mixed population, feeding/residual contact activity, preventive; assay type: in vivo; conditions: foliar, 144 h, sunflower leaf discs sprayed, 6 days incubation, mortality
[6] = tested on: Nilaparvata lugens (brown rice planthopper); test: Example B8: Nilaparvata lugens, larvicide, feeding/contact; assay type: in vivo; conditions: rice seedlings sprayed, N3 nymphs, 6-12 days after treatment
Experimental: Activity Against Nilaparvata lugens (Brown Rice Planthopper) (Larvicide, Feeding/Contact) Rice seedlings are treated with the diluted test solutions in a spray chamber. After drying, they are infested with 20 N3 nymphs (2 replicates). 6-12 days after the treatment samples are checked for mortality, growth regulation, and effects on the F1 generation.

[7] = tested on: Aphis craccivora (cowpea aphid); test: Example B11: translaminar activity against Aphis craccivora; assay type: in vivo; conditions: 120 h, French bean leaves, aphids on lower side, upper side painted, 5 days, mortality
Experimental: Translaminar Activity Against Aphis craccivora (Cowpea Aphid) French bean leaves (Phaseolus vulgaris) are infested with about 20 mixed age individuals on the lower leaf side using clip cages. 1 day after the infestation, the upper side of the leaves is treated with the test solution by painting. 5 days later, samples are checked for mortality.

CON1CCC2(CC1)C(O)=C(c1c(C)cc(Br)cc1C)C(=O)N2C [P2.16] showed a pest or weed control at 200 ppm [1] of at least 80%, a pest or weed control at 400 ppm [2] of over 80% and a pest or weed control at 400 ppm [3] of over 80%.
For CCOC(=O)OC1=C(c2c(C)cc(C)cc2C)C(=O)N(CCCOC)C12CCN(OC)CC2 [P1.16], the pest or weed control at 200 ppm [1] was at least 80%, the pest or weed control at 400 ppm [4] was over 80% and the pest or weed control at 400 ppm [3] was over 80%.
For CON1CCC2(CC1)C(O)=C(c1cc(C)ccc1C)C(=O)N2C [P2.1], the melting point was 121 to 123 °C.
With CCOC(=O)OC1=C(c2cc(C)ccc2C)C(=O)N(C)C12CCN(OC)CC2 [P1.1] the melting point was 96 to 110 °C.
Work on CON1CCC2(CC1)C(O)=C(c1c(C)ccc(Cl)c1C)C(=O)N2C [P2.27] yielded a pest or weed control at 200 ppm [1] of at least 80%.
CON1CCC2(CC1)C(O)=C(c1c(C)cc(C)cc1C)C(=O)N2CC1CC1 [P2.8, 1-Cyclopropylmethyl-4-hydroxy-8-methoxy-3-(2,4,6-trimethyl-phenyl)-1,8-diaza-spiro[4.5]dec-3-en-2-one] showed a melting point of 223 to 225 °C.
Molecule CCOC(=O)OC1=C(c2c(C)cc(C)cc2C)C(=O)N(CC)C12CCN(OC)CC2 [P1.8] has a melting point of 101 to 103 °C.
For CCN1C(=O)C(c2c(C)cc(C)cc2C)=C(O)C12CCN(OC)CC2 [P2.11], the melting point was 218 to 221 °C.
CON1CCC2(CC1)C(O)=C(c1c(C)cc(C)cc1C)C(=O)N2CC1(C)COC1 [P2.30] gave a pest or weed control at 200 ppm [1] of at least 80%.
CON1CCC2(CC1)C(O)=C(c1cc(C)c(C)cc1Cl)C(=O)N2C [P2.26, 3-(2-Chloro-4,5-dimethyl-phenyl)-4-hydroxy-8-methoxy-1-methyl-1,8-diaza-spiro[4.5]dec-3-en-2-one] gave a melting point of 191 to 192 °C.
With COc1cc(COC2=C(c3cc(C)ccc3C)C(=O)NC23CCN(OC)CC3)cc(OC)c1OC [P3.1] the pest or weed control at 400 ppm [5] was over 80%.
For CON1CCC2(CC1)C(O)=C(c1cc(C)c(C)cc1C)C(=O)N2C [P2.25], the melting point was 183 to 186 °C.
For CCOC(=O)OC1=C(c2c(C)cc(Br)cc2C)C(=O)N(C)C12CCN(OC)CC2 [P1.12], the pest or weed control at 200 ppm [1] was at least 80%, the pest or weed control at 400 ppm [4] was over 80% and the pest or weed control at 400 ppm [3] was over 80%.
For CON1CCC2(CC1)NC(=O)C(c1c(C)cc(C)cc1C)=C2OCc1ccccc1 [P3.4, 4-benzyloxy-8-methoxy-3-(2,4,6-trimethyl-phenyl)-1,8-diaza-spiro[4.5]dec-3-en-2-one], the pest or weed control at 400 ppm [5] was over 80% and the pest or weed control at 400 ppm [4] was over 80%.
Molecule CON1CCC2(CC1)C(O)=C(c1c(F)ccc(C)c1Cl)C(=O)N2C [P2.13] has a pest or weed control at 400 ppm [4] of over 80%.
For CCOC(=O)OC1=C(c2c(C)cc(Cl)cc2C)C(=O)N(C)C12CCN(OC)CC2 [P1.29], the pest or weed control at 200 ppm [1] was at least 80% and the pest or weed control at 400 ppm [3] was over 80%.
CCOC(=O)OC1=C(c2c(C)cc(C)cc2C)C(=O)N(CC2CC2)C12CCN(OC)CC2 [P1.5] gave a pest or weed control at 400 ppm [6] of over 80%, a pest or weed control at 400 ppm [7] of over 80% and a pest or weed control at 200 ppm [1] of at least 80%. It also gave a pest or weed control at 400 ppm [4] of over 80%.
Work on CCOC(=O)OC1=C(c2c(Cl)ccc(C)c2F)C(=O)N(C)C12CCN(OC)CC2 [P1.9] yielded a pest or weed control at 400 ppm [4] of over 80%.
For CCOC(=O)OC1=C(c2cc(C)c(C)cc2Br)C(=O)N(C)C12CCN(OC)CC2 [P1.20], the melting point was 158 to 159 °C.
For CON1CCC2(CC1)C(O)=C(c1c(C)cc(Br)cc1Cl)C(=O)N2C [P2.34], the pest or weed control at 200 ppm [1] was at least 80%.
For CCOC(=O)OC1=C(c2c(C)cc(C)cc2C)C(=O)N(C2CC2)C12CCN(OC)CC2 [P1.7], the pest or weed control at 400 ppm [3] was over 80%.
Work on CON1CCC2(CC1)C(OCc1ccccc1)=C(c1c(C)cc(C)cc1C)C(=O)N2CC1CC1 [P3.8, 4-benzyloxy-1-cyclopropylmethyl-8-methoxy-3-(2,4,6-trimethyl-phenyl)-1,8-diaza-spiro[4.5]dec-3-en-2-one] yielded a pest or weed control at 400 ppm [4] of over 80%.
COc1ccc(COC2=C(c3cc(C)ccc3C)C(=O)NC23CCN(OC)CC3)cc1 [P3.2] gave a pest or weed control at 400 ppm [5] of over 80%.
CCOC(=O)OC1=C(c2c(C)cc(C)cc2C)C(=O)N(CCOCOC)C12CCN(OC)CC2 [P1.17] showed a pest or weed control at 400 ppm [2] of over 80% and a pest or weed control at 400 ppm [3] of over 80%.
COCCCN1C(=O)C(c2c(C)cc(C)cc2C)=C(O)C12CCN(OC)CC2 [P2.20] gave a pest or weed control at 400 ppm [5] of over 80%, a pest or weed control at 400 ppm [4] of over 80% and a pest or weed control at 400 ppm [2] of over 80%. It also gave a pest or weed control at 400 ppm [3] of over 80%.
Molecule CON1CCC2(CC1)C(O)=C(c1c(C)cc(C)cc1Cl)C(=O)N2C [P2.9] has a pest or weed control at 400 ppm [4] of over 80%, a pest or weed control at 400 ppm [2] of over 80% and a pest or weed control at 400 ppm [3] of over 80%.
Work on CCOC(=O)OC1=C(c2c(C)cc(C)cc2Cl)C(=O)N(C)C12CCN(OC)CC2 [P1.6] yielded a pest or weed control at 400 ppm [4] of over 80% and a pest or weed control at 400 ppm [3] of over 80%.
CCOC(=O)OC1=C(c2c(C)ccc(C)c2C)C(=O)N(C)C12CCN(OC)CC2 [P1.21] gave a pest or weed control at 200 ppm [1] of at least 80% and a pest or weed control at 400 ppm [4] of over 80%.
With CCOC(=O)OC1=C(c2c(C)cc(C)cc2C)C(=O)N(CC2CCCO2)C12CCN(OC)CC2 (stereo not shown) [P1.26] the pest or weed control at 400 ppm [4] was over 80%.
CON1CCC2(CC1)C(O)=C(c1cc(C)c(C)cc1Br)C(=O)N2C [P2.23] gave a melting point of 191 to 193 °C.
CON1CCC2(CC1)C(O)=C(c1c(C)cc(C)cc1C)C(=O)N2CC1CCCO1 (stereo not shown) [P2.32] showed a pest or weed control at 400 ppm [4] of over 80%.
COCOCCN1C(=O)C(c2c(C)cc(C)cc2C)=C(O)C12CCN(OC)CC2 [P2.21] gave a pest or weed control at 200 ppm [1] of at least 80%, a pest or weed control at 400 ppm [4] of over 80% and a pest or weed control at 400 ppm [2] of over 80%. The pest or weed control at 400 ppm [3] was over 80%.
In the case of CCOC(=O)OC1=C(c2c(C)ccc(Cl)c2C)C(=O)N(C)C12CCN(OC)CC2 [P1.27], the pest or weed control at 200 ppm [1] is reported as at least 80% and the pest or weed control at 400 ppm [3] is reported as over 80%.
Work on CON1CCC2(CC1)C(O)=C(c1c(C)cccc1C)C(=O)N2C [P2.17] yielded a pest or weed control at 200 ppm [1] of at least 80% and a pest or weed control at 400 ppm [3] of over 80%.
Molecule CON1CCC2(CC1)C(O)=C(c1c(C)cc(Cl)cc1C)C(=O)N2C [P2.33] has a pest or weed control at 200 ppm [1] of at least 80% and a pest or weed control at 400 ppm [3] of over 80%.
CON1CCC2(CC1)C(O)=C(c1c(C)ccc(C)c1C)C(=O)N2C [P2.24] gave a pest or weed control at 200 ppm [1] of at least 80%.
CCOC(=O)OC1=C(c2cc(C)c(C)cc2Cl)C(=O)N(C)C12CCN(OC)CC2 [P1.22] gave a melting point of 149 to 150 °C.
CCOC(=O)OC1=C(c2c(C)cccc2C)C(=O)N(C)C12CCN(OC)CC2 [P1.13] showed a pest or weed control at 200 ppm [1] of at least 80% and a pest or weed control at 400 ppm [3] of over 80%.
CCOC(=O)OC1=C(c2ccc(C)cc2C)C(=O)N(C)C12CCN(OC)CC2 [P1.25] showed a pest or weed control at 200 ppm [1] of at least 80%, a pest or weed control at 400 ppm [4] of over 80% and a pest or weed control at 400 ppm [3] of over 80%.
CON1CCC2(CC1)C(O)=C(c1ccc(Cl)cc1Cl)C(=O)N2CC(F)F [P2.4] gave a pest or weed control at 400 ppm [3] of over 80%.
With CCOC(=O)OC1=C(c2c(F)ccc(C)c2Cl)C(=O)N(C)C12CCN(OC)CC2 [P1.10] the pest or weed control at 400 ppm [2] was over 80%.
For CON1CCC2(CC1)C(O)=C(c1c(C)cc(C)c(Cl)c1C)C(=O)N2C [P2.31], the pest or weed control at 200 ppm [1] was at least 80%, the pest or weed control at 400 ppm [4] was over 80% and the pest or weed control at 400 ppm [2] was over 80%. For the same molecule, the pest or weed control at 400 ppm [3] was over 80%.
CON1CCC2(CC1)C(O)=C(c1cc(C)c(Cl)cc1C)C(=O)N2C [P2.15] showed a pest or weed control at 400 ppm [4] of over 80%.
Molecule CCOC(=O)OC1=C(c2cc(C)c(Cl)cc2C)C(=O)N(C)C12CCN(OC)CC2 [P1.28] has a pest or weed control at 400 ppm [5] of over 80%.
CON1CCC2(CC1)C(O)=C(c1c(C)cc(C)cc1C)C(=O)N2C1CC1 [P2.10] gave a pest or weed control at 400 ppm [3] of over 80%.
